From patent US9505735B2, “Compounds for treating infectious diseases” (Whitehead Institute for Biomedical Research, priority 2012, dated 2016)

Experiments:
[1] = tested on: C. albicans Sc5314 cell surface β-glucan; assay: β-Glucan staining (microscopy, flow cytometry); format: cell-based
Description: Overnight treatment and staining of C. albicans strain Sc5314 was performed as previously described for caspofungin treatment using YPD media at 30° C. to maintain growth in the yeast form (Wheeler, et al. (2006) PLoS Pathog 2, e35). Antibody to (1-3) β-D-glucan was obtained from Biosupplies (Australia). Cells were propidium iodide (PI) stained to assess viability and only PI-negative cells were analyzed. Microscopy was performed on a Nikon Eclipse microscope with a 100× oil objective.

[2] = biological target: T1, Gwt1 (Saccharomyces cerevisiae, UniProt P47026); assay: In vitro acylation assay with yeast membranes; format: biochemical, S. cerevisiae
T1 construct: Wildtype S. cerevisiae BY4741; endogenous in cells; host or cells: S. cerevisiae BY4741 (wild type)
T1 sequence (P47026 1-490): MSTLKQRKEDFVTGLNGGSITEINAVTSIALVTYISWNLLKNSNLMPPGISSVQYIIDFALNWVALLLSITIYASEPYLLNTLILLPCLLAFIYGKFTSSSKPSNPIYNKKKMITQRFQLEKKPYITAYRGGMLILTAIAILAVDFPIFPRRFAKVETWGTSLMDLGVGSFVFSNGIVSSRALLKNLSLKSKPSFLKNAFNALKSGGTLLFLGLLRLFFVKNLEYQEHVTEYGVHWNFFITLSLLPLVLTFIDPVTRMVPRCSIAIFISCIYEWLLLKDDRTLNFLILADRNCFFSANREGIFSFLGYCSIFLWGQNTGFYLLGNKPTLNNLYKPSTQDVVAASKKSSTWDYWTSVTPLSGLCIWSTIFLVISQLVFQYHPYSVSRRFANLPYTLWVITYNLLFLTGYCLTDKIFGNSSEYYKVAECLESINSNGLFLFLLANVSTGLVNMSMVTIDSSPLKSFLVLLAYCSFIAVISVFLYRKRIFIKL
Description: Experiments were performed using a previously published protocol (Umemara, et al. (2003) J Biol Chem 278, 23639-23647) with the following modifications; UDP[^3H]GlcNAc was used instead of [^14C] and TLC plates were imaged by autoradiography. Lipid extracts were treated overnight with phosphatidylinositol-specific phospholipase C to confirm that the band identified as GlcN-(acyl)PI was resistant to cleavage (data not shown).
Production of GPI-anchors begins on the cytoplasmic surface of the ER but is completed on the luminal side. Gwt1 (in yeast) or PIG-W (mammalian) acts at the first step on the luminal side of the ER, the acylation of glucosamine phosphatidylinositol (GlcN-PI) (FIG. 2b) (Sagane, et al. (2011) J Biol Chem 286, 14649-14658; Murakami, et al. (2003) Mol Biol Cell 14, 4285-4295). To provide direct biochemical evidence that Gwt1 is the proximal protein target of gepinacin in vitro acylation reactions were performed using yeast membrane preparations. UDP[^3H]GlcNAc was incubated with the membranes, and the resulting lipid products were recovered by chemical extraction and fractionated by silica gel thin layer chromatography (TLC). The appearance of a phospholipase-C insensitive band indicated the production of the acylated product.

[3] = tested on: NIH 3T3 cells; assay: Co-culture of mammalian cells and C. albicans: mammalian cells; format: cell-based; details: 40 μM, 24 hours
Description: For co-culture experiments, confluent layers of NIH 3T3 cells were established in 6-well plates. The following day, the medium was replaced with RPMI1640+10% FBS containing the amphotericin-resistant strain CaAmphR at […] colony forming units per ml and 40 μM gepinacin or an equivalent amount of DMSO. Co-cultures were incubated for 24 hours at 37° C. in a micro-isolator box. Images were acquired on a Nikon Eclipse TS100 microscope at 40×.
Having determined the target of gepinacin in fungi, gepinacin's effect on the human ortholog of Gwt1, PIG-W, was examined. To determine if gepinacin remained active under mammalian cell culture conditions cultured fungi were cultured (either an amphotericin B-resistant (FIG. 3a) or fluconazole-resistant (data not shown) isolate of C. albicans) and mammalian cells together with 40 μM gepinacin. […] PIG-W (and GPI anchor biosynthesis) is not essential for mammalian cells in culture.

[4] = tested on: S. cerevisiae strains with graded levels of Gwt1 expression; assay: Antifungal susceptibility testing of strains with graded GWT1 copy number; format: cell-based
From the text: (A) Anti-fungal susceptibility testing of S. cerevisiae strains with graded levels of Gwt1 expression treated with gepinacin. Wild type diploids (Wt) or diploids with one copy of GWT1 deleted (gwt1/GWT1) were transformed with low copy (CEN) plasmids encoding GWT1 or GFP (as a control). (B) Schematic of Gwt1 protein function in cells. Glucosamine (shown as a black circle) phosphatidyl inositol (GlcN-PI) is acylated (orange zigzag) by Gwt1 to become GlcN-(acyl)PI.
Anti-fungal susceptibility testing of wild type diploids (Wt) or diploids with one copy of GWT1 deleted (gwt1Δ/GWT1) transformed with high copy (2 micron) plasmids containing GWT1 or GFP (as a control). The strains were treated with gepinacin for 48 hours and the growth was monitored by measuring the optical density at 600 nm (OD600). The results are expressed as a fraction of the OD600 measured in the absence of gepinacin.
To determine the mechanism responsible for the antifungal activity of the compound, the powerful genetic tools available in the model fungal organism S. cerevisiae were utilized. Both an arrayed haploid over-expression library and a pooled heterozygous deletion library were screened for enhancement or suppression of toxicity. […] With each strain expressing one open reading frame (ORF), this library covered approximately 90% of the yeast genome. […]

COc1ccc(NC(=O)COc2cccc(OCC(C)C)c2)cc1 [gepinacin]
increase in median channel fluorescence (β-glucan, flow cytometry) versus control [1]: 4.5 fold
β-glucan presentation on the cell surface (immunostaining) ([1]; sub-lethal concentrations (5 μM)): dramatically increase
acyltransferase activity, strain expressing the yeast gene ([2]; membranes of low copy plasmid strain): potently inhibited
acylation of GlcN-PI ([2]; yeast membrane preparations, inactive analog at 10 μM): inhibited the acylation of GlcN-PI at low micromolar concentration
effect on mammalian cells in co-culture [3]: no effect
toxicity versus GWT1 copy number [4]: inversely correlated with GWT1 copy number
